From patent US20210361683A1, “COMPOSITIONS AND METHODS FOR THE TREATMENT OF MUSCLE CONTRACTURES” (Children's Hospital Medical Center, priority 2018, published 2021) come the findings set out here.

“Also recorded” adds a separate entry of the source.

Series [1] in a line: Survival / mortality of NBPI mice during treatment. In kind it is in vivo. Here is the method: (§1) Mice were treated either with saline (as the vehicle; 0.9% Sodium Chloride Injection USP, Hospira), [Gly^14]-Humanin G ([Gly14]-HN; 1 μg/dose; H6161, Sigma-Aldrich) alone or co-administered with Bortezomib (0.2-0.4 mg/kg body weight; 5043140001, Sigma-Aldrich) by IP injection starting immediately post-operative or delayed by 3/7 days (P8/12 start), and injected every other day with sacrifice at 4 weeks post-NBPI (24 h following the last IP injection). The use of littermate controls was rejected due to the risk of treatment cross-contamination either through direct contact or by ingestion from their mother, and [Gly14]-HN was included to mitigate the toxicity that has been reported for Bortezomib^47. Deficits in motor function were confirmed as described above, and measurement of shoulder and elbow range of motion was measured immediately post-sacrifice^16 with blinding to the treatment group. Mouse limbs harvested 4 weeks post-NBPI were positioned on cork for processing of bilateral brachialis muscles for DIC microscopy as described above for measurement of muscle sarcomere length.

Series [2] relates to brachialis muscle after NBPI. In words: Brachialis sarcomere length (muscle length) 4 weeks post-NBPI. Type of series: in vivo, mice. To be noted: 0.3 mg/kg, P8 to P33. Here is the method: Sarcomere lengths were measured from single muscle fibers, acquiring 6 images per fiber by differential interference contrast (DIC) microscopy on a Nikon Eclipse Ti-E inverted microscope with the Plan Apo λ40× objective (Nikon Instruments), Xyla 4.2 megapixel, 16-bit sCMOS monochromatic camera (Andor/Oxford Instruments) and NIS-Elements imaging software (Nikon Instruments). A series of 10 sarcomeres were measured per image in AxioVision software and an average sarcomere length was then determined for each fiber.
Mouse limbs harvested 4 weeks post-NBPI were processed on cork at 90° elbow flexion (confirmed by digital x-ray) prior to fixation in 10% NBF as described previously^16. […]
Mice were treated either with saline (as the vehicle; 0.9% Sodium Chloride Injection USP, Hospira), [Gly^14]-Humanin G ([Gly14]-HN; 1 μg/dose; H6161, Sigma-Aldrich) alone or co-administered with Bortezomib (0.2-0.4 mg/kg body weight; 5043140001, Sigma-Aldrich) by IP injection starting immediately post-operative or delayed by 3/7 days (P8/12 start), and injected every other day with sacrifice at 4 weeks post-NBPI (24 h following the last IP injection). […] Deficits in motor function were confirmed as described above, and measurement of shoulder and elbow range of motion was measured immediately post-sacrifice^16 with blinding to the treatment group. […]

In series [3] the test system is elbow and shoulder contractures after neonatal brachial plexus injury (NBPI). In words: Elbow and shoulder contracture severity (range of motion) in mouse model of NBPI. Conditions: for contracture severity (efficacy): compared to 0.4 mg/kg from P5; for shoulder and elbow contracture severity: 4 weeks after NBPI. In kind it is in vivo, mice.
Text: All animal procedures were approved by Cincinnati Children's Hospital Medical Center's Institutional Animal Care and Use Committee. Unilateral global (C5-T1) NBPIs were created by surgical extraforaminal nerve root excision in 5-day-old CD-1 mice (Charles River) under general anesthesia. Deficits in motor function were validated post-operatively and again prior to sacrifice to ensure only animals with permanent motor deficits were included for analysis. Elbow and shoulder (where indicated) range of motion were measured immediately post-sacrifice using a validated digital photography technique in order to confirm the presence of elbow flexion and shoulder internal rotation contractures^16. Mice were euthanized by CO2 asphyxiation, except at postnatal day 5 and 12 time points, where isoflurane overdose was utilized.
as §1

Regarding `CC(C)C[C@H](NC(=O)[C@H](Cc1ccccc1)NC(=O)c1cnccn1)B(O)O` [Bortezomib, ([1R)-3-methyl-1-[[(2S)-1-oxo-3-phenyl-2-[(pyrazinylcarbonyl)amino]propyl]amino]butyl]-boronic acid], the mortality entry in series [1] (0.2 mg/kg, P5 to P33) is given as “eliminated mortality”; in series [1] (0.3 mg/kg, P5 to P33, compared to 0.4 mg/kg from P5), “partially improved mortality”; in series [1] (0.4 mg/kg every other day, P5 to P33) it was “caused mortality, mostly in the first week of treatment”; in series [1] (0.4 mg/kg, P8 to P33, compared to 0.4 mg/kg from P5) it was “partially improved mortality”; in series [1] (0.4 mg/kg, P12-P33), “eliminated mortality”. For the same compound, the “mortality (early death)” value in series [1] (0.3 mg/kg, P8 to P33) is “minimal early death”. Further, in series [2], the “reduction in the sarcomere elongation caused by NBPI (rescue of brachialis length)” value was 70%. Moreover, the “sarcomere length in the brachialis” value in series [2] is listed as “preserves muscle length”. Also, the contracture severity entry is “less severe contractures compared to saline they were not as efficacious as 0.4 mg/kg Bortezomib administered beginning at P5” in series [3] (0.2 mg/kg, P5 to P33) and “less severe contractures compared to saline they were not as efficacious as 0.4 mg/kg Bortezomib administered beginning at P5” in series [3] (0.4 mg/kg, P12-P33). Besides, the “contracture severity (efficacy)” value is reported as “maintained efficacy” in series [3] (0.3 mg/kg, P5 to P33) and “maintained efficacy” in series [3] (0.4 mg/kg, P8 to P33). Moreover, the prevention of contractures entry in series [3] (0.3 mg/kg, P8 to P33) is on record as “optimal efficacy in prevention of contractures; also recorded: lack of contractures”. Besides, in series [3] (0.4 mg/kg every other day IP, P5 to P33, co-administered with [Gly14]-Humanin, vs saline), the “shoulder and elbow contracture severity” value was “significantly reducing shoulder and elbow contracture severity; also recorded: corrected”. The “prevention of contractures, dose dependence” value in series [3] (0.2-0.4 mg/kg following NBPI) is listed as “prevents contractures in a dose-dependent manner”.

Take [Gly^14]-Humanin: the “shoulder and elbow contracture severity” value in series [3] ([Gly14]-Humanin alone, 1 μg/dose IP every other day) is on record as “no effect alone”.
